Measurements: PubChem BioAssay AID330 (DTP/NCI, 2004)
Several values for one entry are separate records, joined by “and”; a condition that tells them apart may be missing. Identical values can stand only once. Toxic doses and inconclusive results are not listed. How the source made its calls: active means survival T/C of 150% or more; inactive means T/C below 125% in these data.

System: P388 leukemia ip, CD2F1 mice, survival T/C
Assay: NCI In Vivo Anticancer Drug Screen. Data for tumor model P388 Leukemia (intraperitoneal) in CD2F1 (CDF1) mice
Conditions: endpoint: median survival time, higher = longer survival
In short: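 Mice carrying the transplanted tumor received test compound or vehicle. Survival was recorded in each group, and the value is the treated-group measurement divided by that of the vehicle-treated control group.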

[1] = dose: 50.0 mg/kg/injection, schedule: Q01DX005 (ip), vehicle: saline with Tween-80
[2] = dose: 100.0 mg/kg/injection, schedule: Q01DX005 (ip), vehicle: saline with Tween-80
[3] = dose: 200.0 mg/kg/injection, schedule: Q01DX005 (ip), vehicle: saline with Tween-80
[4] = dose: 12.5 mg/kg/injection, schedule: Q01DX009 (ip), vehicle: saline with Tween-80
[5] = dose: 60.0 mg/kg/injection, schedule: Q01DX005 (ip), vehicle: saline with Tween-80
[6] = dose: 50.0 mg/kg/injection, schedule: Q01DX009 (ip), vehicle: saline
[7] = dose: 100.0 mg/kg/injection, schedule: Q01DX009 (ip), vehicle: saline
[8] = dose: 200.0 mg/kg/injection, schedule: Q01DX009 (ip), vehicle: saline
[9] = dose: 50.0 mg/kg/injection, schedule: Q01DX009 (ip), vehicle: Klucel (hydroxypropylcellulose) (HPC)

Measured: T/C

CCCCCCCCCCCC(=O)NCCCCCC(=O)NC1C(C)OC(Nc2ncnc3nc[nH]c23)C(O)C1O (stereo not drawn)
inactive: dose: 0.5 mg/kg/injection, schedule: Q01DX009 (ip), vehicle: water 99 % of control | dose: 1.0 mg/kg/injection, schedule: Q01DX009 (ip), vehicle: water 99 % of control | dose: 2.0 mg/kg/injection, schedule: Q01DX009 (ip), vehicle: water 115 % of control | dose: 4.0 mg/kg/injection, schedule: Q01DX009 (ip), vehicle: water 115 % of control | dose: 8.0 mg/kg/injection, schedule: Q01DX009 (ip), vehicle: distilled water + Tween-80 87 % of control | dose: 8.0 mg/kg/injection, schedule: Q01DX009 (ip), vehicle: water 117 % of control | dose: 16.0 mg/kg/injection, schedule: Q01DX009 (ip), vehicle: distilled water + Tween-80 89 % of control | dose: 32.0 mg/kg/injection, schedule: Q01DX009 (ip), vehicle: distilled water + Tween-80 114 % of control | dose: 64.0 mg/kg/injection, schedule: Q01DX009 (ip), vehicle: distilled water + Tween-80 123 % of control

N=C(N)c1ccc(N=Nc2cc(N=Nc3ccccc3)ccc2O)cc1
inactive: dose: 25.0 mg/kg/injection, schedule: Q01DX005 (ip), vehicle: Klucel (hydroxypropylcellulose) (HPC) 109 % of control | dose: 50.0 mg/kg/injection, schedule: Q01DX005 (ip), vehicle: Klucel (hydroxypropylcellulose) (HPC) 113 % of control | dose: 100.0 mg/kg/injection, schedule: Q01DX005 (ip), vehicle: Klucel (hydroxypropylcellulose) (HPC) 115 % of control | dose: 200.0 mg/kg/injection, schedule: Q01DX005 (ip), vehicle: Klucel (hydroxypropylcellulose) (HPC) 115 % of control

Cc1ccc(OCC(O)CN2CCN(c3ccc(Cl)cc3)CC2)cc1 (stereo not drawn)
inactive: dose: 100.0 mg/kg/injection, schedule: Q01DX009 (ip), vehicle: saline sonified 100 % of control | dose: 200.0 mg/kg/injection, schedule: Q01DX009 (ip), vehicle: saline sonified 95 % of control | dose: 400.0 mg/kg/injection, schedule: Q01DX009 (ip), vehicle: saline sonified 90 % of control

O=c1[nH]cc([N+](=O)[O-])cc1Cl
inactive: [1] 104 % of control | [2] 95 % of control

CC1CC=CCC1C1OC(C)C(C)O1 (stereo not drawn)
inactive: [1] 110 % of control | [2] 106 % of control | [3] 109 % of control

O=C1CN(N2CCOCC2)CC(=O)N2CCCCN12
inactive: dose: 50.0 mg/kg/injection, schedule: Q01DX005 (ip), vehicle: saline 100 % of control | dose: 100.0 mg/kg/injection, schedule: Q01DX005 (ip), vehicle: saline 109 % of control | dose: 200.0 mg/kg/injection, schedule: Q01DX005 (ip), vehicle: saline 109 % of control

CSC(SC)=C(C#N)C#N
inactive: dose: 25.0 mg/kg/injection, schedule: Q04DX003 (ip), vehicle: saline 104 % of control | dose: 50.0 mg/kg/injection, schedule: Q04DX003 (ip), vehicle: saline 105 % of control | dose: 100.0 mg/kg/injection, schedule: Q04DX003 (ip), vehicle: saline 108 % of control

Oc1nc(-c2ccccc2)sc1-c1ccc(Cl)cc1
inactive: [4] 93 % of control | dose: 25.0 mg/kg/injection, schedule: Q01DX009 (ip), vehicle: saline with Tween-80 86 % of control | dose: 200.0 mg/kg/injection, schedule: Q01DX009 (ip), vehicle: saline with Tween-80 98 % of control

COc1ccc(C(c2c(O)c3ccccc3oc2=O)c2c(O)c3ccccc3oc2=O)cc1
inactive: dose: 15.0 mg/kg/injection, schedule: Q01DX005 (ip), vehicle: saline with Tween-80 98 % of control | dose: 30.0 mg/kg/injection, schedule: Q01DX005 (ip), vehicle: saline with Tween-80 98 % of control | [5] 100 % of control and 98 % of control

C=C1OC(C2CCCCC2)=C(C(=O)OCC)C1C (stereo not drawn)
inactive: dose: 100.0 mg/kg/injection, schedule: Q01DX001 (ip), vehicle: saline with Tween-80 100 % of control | dose: 200.0 mg/kg/injection, schedule: Q01DX001 (ip), vehicle: saline with Tween-80 94 % of control | dose: 400.0 mg/kg/injection, schedule: Q01DX001 (ip), vehicle: saline with Tween-80 100 % of control

Cc1cc2c(c(C#N)c1C)NC=NC2C (stereo not drawn)
inactive: dose: 50.0 mg/kg/injection, schedule: Q01DX009 (ip), vehicle: saline with Tween-80 94 % of control | dose: 100.0 mg/kg/injection, schedule: Q01DX009 (ip), vehicle: saline with Tween-80 105 % of control

O=C(NC(=O)c1c(F)cccc1F)Nc1ccc(Cl)nc1
inactive: dose: 3.13 mg/kg/injection, schedule: Q01DX009 (ip), vehicle: saline with Tween-80 105 % of control | dose: 6.25 mg/kg/injection, schedule: Q01DX009 (ip), vehicle: saline with Tween-80 100 % of control | [4] 102 % of control

O=C(O)CCCc1ccc2c(c1)OCO2
inactive: [1] 113 % of control | [2] 98 % of control | [3] 106 % of control

NC(=O)CC(N)CO (stereo not drawn)
inactive: [6] 100 % of control | [7] 100 % of control | [8] 103 % of control | dose: 400.0 mg/kg/injection, schedule: Q01DX009 (ip), vehicle: saline 101 % of control

CSc1nc2ccc(CN3C(=O)c4ccccc4C3=O)cc2s1
inactive: [9] 88 % of control | dose: 100.0 mg/kg/injection, schedule: Q01DX009 (ip), vehicle: Klucel (hydroxypropylcellulose) (HPC) 98 % of control | dose: 200.0 mg/kg/injection, schedule: Q01DX009 (ip), vehicle: Klucel (hydroxypropylcellulose) (HPC) 91 % of control

NC(=O)c1cc([N+](=O)[O-])cnc1Sc1ncccn1
inactive: dose: 12.5 mg/kg/injection, schedule: Q01DX009 (ip), vehicle: Klucel (hydroxypropylcellulose) (HPC) 110 % of control | dose: 25.0 mg/kg/injection, schedule: Q01DX009 (ip), vehicle: Klucel (hydroxypropylcellulose) (HPC) 118 % of control | [9] 111 % of control and 114 % of control

O=[N+]([O-])c1cc2[nH]cnc2c([N+](=O)[O-])c1Nc1ccccc1
inactive: dose: 100.0 mg/kg/injection, schedule: Q04DX003 (ip), vehicle: saline with Tween-80 102 % of control | dose: 200.0 mg/kg/injection, schedule: Q04DX003 (ip), vehicle: saline with Tween-80 93 % of control | dose: 400.0 mg/kg/injection, schedule: Q04DX003 (ip), vehicle: saline with Tween-80 101 % of control

Cc1cc(OC(=O)c2c(-c3ccccc3)noc2C)n(-c2ccc(NC(=O)c3c(-c4ccccc4)noc3C)cc2)n1
inactive: [6] 96 % of control | [7] 100 % of control | [8] 101 % of control

CCOC(=O)COc1ccc(NC(C)=O)cc1
inactive: [5] 103 % of control | dose: 120.0 mg/kg/injection, schedule: Q01DX005 (ip), vehicle: saline with Tween-80 103 % of control | dose: 240.0 mg/kg/injection, schedule: Q01DX005 (ip), vehicle: saline with Tween-80 95 % of control

Cc1ccc(-n2c(=O)nc([O-])[n+]3ccccc23)cc1
inactive: dose: 60.0 mg/kg/injection, schedule: Q01DX005 (ip), vehicle: Klucel (hydroxypropylcellulose) (HPC) 99 % of control | dose: 120.0 mg/kg/injection, schedule: Q01DX005 (ip), vehicle: Klucel (hydroxypropylcellulose) (HPC) 98 % of control | dose: 240.0 mg/kg/injection, schedule: Q01DX005 (ip), vehicle: Klucel (hydroxypropylcellulose) (HPC) 96 % of control

CC(=O)C(=O)c1ccc(O)cc1O
inactive: dose: 10.0 mg/kg/injection, schedule: Q01DX009 (ip), vehicle: saline with Tween-80 96 % of control | dose: 20.0 mg/kg/injection, schedule: Q01DX009 (ip), vehicle: saline with Tween-80 103 % of control | dose: 40.0 mg/kg/injection, schedule: Q01DX009 (ip), vehicle: saline with Tween-80 107 % of control

COc1ccc(Nc2ccc([N+](=O)[O-])c3nonc23)cc1
inactive: [1] 92 % of control | [2] 87 % of control

C=C1CCC(Br)C2(C)CCC(C(C)(C)O)CC12 (stereo not drawn)
inactive: dose: 2.0 mg/kg/injection, schedule: Q01DX009 (ip), vehicle: Klucel (hydroxypropylcellulose) (HPC) 100 % of control | dose: 4.0 mg/kg/injection, schedule: Q01DX009 (ip), vehicle: Klucel (hydroxypropylcellulose) (HPC) 100 % of control | dose: 8.0 mg/kg/injection, schedule: Q01DX009 (ip), vehicle: Klucel (hydroxypropylcellulose) (HPC) 98 % of control | dose: 16.0 mg/kg/injection, schedule: Q01DX009 (ip), vehicle: Klucel (hydroxypropylcellulose) (HPC) 99 % of control

c1ccc2oc(NCCSSCCNc3nc4ccccc4o3)nc2c1
inactive: dose: 12.5 mg/kg/injection, schedule: Q01DX009 (ip), vehicle: other 100 % of control | dose: 25.0 mg/kg/injection, schedule: Q01DX009 (ip), vehicle: other 92 % of control | dose: 50.0 mg/kg/injection, schedule: Q01DX009 (ip), vehicle: other 86 % of control and 93 % of control
